Columns and labels:
oat, wild [1] = assay: Test C postemergence; format: in vivo, Avena fatua; details: 10 days
How it was run: (§1)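 Test material, in non-phytotoxic solvent with surfactant, was sprayed on the soil directly after seeding (preemergence) or on young plants of 2–10 cm with one to two leaves (postemergence). Greenhouse, 10 days; 0–100 visual control scale.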

oat, wild [2] = assay: Test C preemergence; format: in vivo, Avena fatua; details: preemergence, 0 to 100 scale (0 no effect, 100 complete control)
How it was run: as §1

barnyardgrass [3] = assay: Test C preemergence; format: in vivo, Echinochloa crusgalli; details: 0 to 100 scale (0 no effect, 100 complete control); for Barnyardgrass plant response rating: preemergence
How it was run: as §1

barnyardgrass [4] = assay: Test D flooded paddy test; format: in vivo, Echinochloa crus-galli; details: 250 g ai/ha, applied to paddy water, visual rating after 13 to 14 days, scale 0 to 100 (0 no effect, 100 complete control)
How it was run: (§2)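 Seedlings reached the 2-leaf stage, then pots were flooded to 3 cm over the soil surface. Compound was applied into the water, depth was maintained, and plants stayed in the greenhouse 13 to 14 days before visual scoring (0–100) relative to controls.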

green foxtail [5] = assay: Test C postemergence; format: in vivo, Setaria viridis; details: 10 days
How it was run: as §1

barnyardgrass [6] = assay: Test C postemergence; format: in vivo, Echinochloa crusgalli; details: 10 days
How it was run: as §1

blackgrass [7] = assay: Test C preemergence; format: in vivo, Alopecurus myosuroides; details: 0 to 100 scale (0 no effect, 100 complete control); for Blackgrass plant response rating: preemergence
How it was run: as §1

soybean [8] = assay: Test C preemergence; format: in vivo, Glycine max; details: preemergence, 0 to 100 scale (0 no effect, 100 complete control)
How it was run: as §1

horseweed = assay: Test C postemergence; format: in vivo, Erigeron canadensis; details: 10 days
How it was run: as §1

pigweed, palmer [9] = assay: Test C preemergence; format: in vivo, Amaranthus palmeri; details: preemergence, 0 to 100 scale (0 no effect, 100 complete control)
How it was run: as §1

rice = assay: Test D flooded paddy test; format: in vivo, Oryza sativa; details: 250 g ai/ha, applied to paddy water, visual rating after 13 to 14 days, scale 0 to 100 (0 no effect, 100 complete control)
How it was run: as §2

sedge, umbrella = assay: Test D flooded paddy test; format: in vivo, Cyperus difformis; details: 250 g ai/ha, applied to paddy water, visual rating after 13 to 14 days, scale 0 to 100 (0 no effect, 100 complete control)
How it was run: as §2

wheat [10] = assay: Test C postemergence; format: in vivo, Triticum aestivum; details: 10 days
How it was run: as §1

green foxtail [11] = assay: Test C preemergence; format: in vivo, Setaria viridis; details: preemergence, 0 to 100 scale (0 no effect, 100 complete control)
How it was run: as §1

kochia [12] = assay: Test C postemergence; format: in vivo, Bassia scoparia; details: 10 days
How it was run: as §1

soybean [13] = assay: Test C postemergence; format: in vivo, Glycine max; details: 10 days
How it was run: as §1

ragweed [14] = assay: Test C preemergence; format: in vivo, Ambrosia artemisiifolia; details: preemergence, 0 to 100 scale (0 no effect, 100 complete control)
How it was run: as §1

blackgrass [15] = assay: Test C postemergence; format: in vivo, Alopecurus myosuroides; details: 10 days
How it was run: as §1

wheat [16] = assay: Test C preemergence; format: in vivo, Triticum aestivum; details: preemergence, 0 to 100 scale (0 no effect, 100 complete control)
How it was run: as §1

ragweed [17] = assay: Test C postemergence; format: in vivo, Ambrosia artemisiifolia; details: 10 days
How it was run: as §1

galium = assay: Test C postemergence; format: in vivo, Galium aparine; details: 10 days
How it was run: as §1

corn [18] = assay: Test C postemergence; format: in vivo, Zea mays; details: 10 days
How it was run: as §1

ducksalad = assay: Test D flooded paddy test; format: in vivo, Heteranthera limosa; details: 250 g ai/ha, applied to paddy water, visual rating after 13 to 14 days, scale 0 to 100 (0 no effect, 100 complete control)
How it was run: as §2

pigweed, palmer [19] = assay: Test C postemergence; format: in vivo, Amaranthus palmeri; details: 10 days
How it was run: as §1

ryegrass, Italian [20] = assay: Test C postemergence; format: in vivo, Lolium multiflorum; details: 10 days
How it was run: as §1

kochia [21] = assay: Test C preemergence; format: in vivo, Bassia scoparia; details: preemergence, 0 to 100 scale (0 no effect, 100 complete control)
How it was run: as §1

ryegrass, Italian [22] = assay: Test C preemergence; format: in vivo, Lolium multiflorum; details: preemergence, 0 to 100 scale (0 no effect, 100 complete control)
How it was run: as §1

corn [23] = assay: Test C preemergence; format: in vivo, Zea mays; details: preemergence, 0 to 100 scale (0 no effect, 100 complete control)
How it was run: as §1

[24] = 500 g ai/ha, postemergence, 0 to 100 scale (0 no effect, 100 complete control)
[25] = Postemergence, 125 g ai/ha, 0 to 100 scale (0 no effect, 100 complete control)
[26] = 125 g ai/ha, postemergence, 0 to 100 scale, 0 no effect, 100 complete control
[27] = Preemergence, 500 g ai/ha, visual rating after 10 days
[28] = Postemergence, 500 g ai/ha, visual 0 to 100 scale (0 no effect, 100 complete control)

Cc1cccc2c1O[C@@H](C)CN2C(=O)c1cccc(-n2cnc([N+](=O)[O-])n2)c1 [Compound 306]
Plant response rating, Oat, Wild (oat, wild [1]; [24]): 0 | Plant response rating, Oat, Wild (oat, wild [1]; [25]): 0 | Oat, Wild plant response rating (oat, wild [2]; 500 g ai/ha): 0 | Oat, Wild plant response rating (oat, wild [2]; Test C, 125 g ai/ha): 0 | Barnyardgrass plant response rating (barnyardgrass [3]; 500 g ai/ha): 0 | Barnyardgrass plant response rating (barnyardgrass [3]; Test C, 125 g ai/ha): 0 | Plant response rating, Barnyardgrass (Flood) (barnyardgrass [4]): 0 | Plant response rating, Foxtail, Green (green foxtail [5]; [24]): 50 | Plant response rating, Foxtail, Green (green foxtail [5]; [25]): 30 | Plant response rating, Barnyardgrass (barnyardgrass [6]; [24]): 10 | Plant response rating, Barnyardgrass (barnyardgrass [6]; [25]): 10 | Blackgrass plant response rating (blackgrass [7]; 500 g ai/ha): 0 | Soybean plant response rating (soybean [8]; 500 g ai/ha): 0 | Soybean plant response rating (soybean [8]; Test C, 125 g ai/ha): 0 | Plant response rating, Horseweed (horseweed; [24]): 0 | Plant response rating, Horseweed (horseweed; [25]): 30 | Pigweed, Palmer plant response rating (pigweed, palmer [9]; 500 g ai/ha): 10 | Pigweed, Palmer plant response rating (pigweed, palmer [9]; Test C, 125 g ai/ha): 0 | Plant response rating, Rice (Flood) (rice): 0 | Plant response rating, Sedge, Umbrella (Flood) (sedge, umbrella): 0 | Plant response rating, Wheat (wheat [10]; [24]): 10 | Plant response rating, Wheat (wheat [10]; [25]): 0 | Foxtail, Green plant response rating (green foxtail [11]; 500 g ai/ha): 50 | Foxtail, Green plant response rating (green foxtail [11]; Test C, 125 g ai/ha): 0 | Plant response rating, Kochia (kochia [12]; [24]): 10 | Plant response rating, Kochia (kochia [12]; [25]): 10 | Plant response rating, Soybean (soybean [13]; [24]): 90 | Plant response rating, Soybean (soybean [13]; [25]): 30 | Ragweed plant response rating (ragweed [14]; 500 g ai/ha): 20 | Ragweed plant response rating (ragweed [14]; Test C, 125 g ai/ha): 20 | Plant response rating, Blackgrass (blackgrass [15]; [24]): 10 | Plant response rating, Blackgrass (blackgrass [15]; [25]): 0 | Wheat plant response rating (wheat [16]; 500 g ai/ha): 0 | Wheat plant response rating (wheat [16]; Test C, 125 g ai/ha): 0 | Plant response rating, Ragweed (ragweed [17]; [24]): 0 | Plant response rating, Ragweed (ragweed [17]; [25]): 30 | Plant response rating, Galium (galium; [24]): 50 | Plant response rating, Galium (galium; [25]): 30 | Plant response rating, Corn (corn [18]; [24]): 10 | Plant response rating, Corn (corn [18]; [25]): 0 | Plant response rating, Ducksalad (Flood) (ducksalad): 0 | Plant response rating, Pigweed, Palmer (pigweed, palmer [19]; [24]): 20 | Plant response rating, Pigweed, Palmer (pigweed, palmer [19]; [25]): 0 | Plant response rating, Ryegrass, Italian (ryegrass, Italian [20]; [24]): 0 | Plant response rating, Ryegrass, Italian (ryegrass, Italian [20]; [25]): 0 | Kochia plant response rating (kochia [21]; 500 g ai/ha): 0 | Kochia plant response rating (kochia [21]; Test C, 125 g ai/ha): 0 | Ryegrass, Italian plant response rating (ryegrass, Italian [22]; 500 g ai/ha): 40 | Ryegrass, Italian plant response rating (ryegrass, Italian [22]; Test C, 125 g ai/ha): 30 | Corn plant response rating (corn [23]; 500 g ai/ha): 0 | Corn plant response rating (corn [23]; Test C, 125 g ai/ha): 0

COc1ccc(-n2cncn2)cc1C(=O)N1C[C@H](C)Oc2c(F)cccc21 [Compound 270]
Plant response rating, Oat, Wild (oat, wild [1]; [26]): 90 | Oat, Wild plant response rating (oat, wild [2]; 500 g ai/ha): 90 | Oat, Wild plant response rating (oat, wild [2]; Test C, 125 g ai/ha): 40 | Plant response rating, Barnyardgrass (barnyardgrass [3]; [27]): 100 | Barnyardgrass plant response rating (barnyardgrass [3]; Test C, 125 g ai/ha): 70 | Plant response rating, Barnyardgrass (Flood) (barnyardgrass [4]): 15 | Plant response rating, Foxtail, Green (green foxtail [5]; [26]): 80 | Plant response rating, Foxtail, Green (green foxtail [5]; [28]): 90 | Plant response rating, Barnyardgrass (barnyardgrass [6]; [26]): 90 | Plant response rating, Barnyardgrass (barnyardgrass [6]; [28]): 100 | Plant response rating, Blackgrass (blackgrass [7]; [27]): 90 | Blackgrass plant response rating (blackgrass [7]; Test C, 125 g ai/ha): 80 | Soybean plant response rating (soybean [8]; 500 g ai/ha): 100 | Soybean plant response rating (soybean [8]; Test C, 125 g ai/ha): 90 | Plant response rating, Horseweed (horseweed; [26]): 20 | Plant response rating, Horseweed (horseweed; [28]): 60 | Pigweed, Palmer plant response rating (pigweed, palmer [9]; 500 g ai/ha): 100 | Pigweed, Palmer plant response rating (pigweed, palmer [9]; Test C, 125 g ai/ha): 90 | Plant response rating, Rice (Flood) (rice): 10 | Plant response rating, Sedge, Umbrella (Flood) (sedge, umbrella): 95 | Plant response rating, Wheat (wheat [10]; [26]): 80 | Foxtail, Green plant response rating (green foxtail [11]; 500 g ai/ha): 100 | Foxtail, Green plant response rating (green foxtail [11]; Test C, 125 g ai/ha): 100 | Plant response rating, Kochia (kochia [12]; [26]): 30 | Plant response rating, Soybean (soybean [13]; [26]): 100 | Ragweed plant response rating (ragweed [14]; 500 g ai/ha): 60 | Ragweed plant response rating (ragweed [14]; Test C, 125 g ai/ha): 10 | Plant response rating, Blackgrass (blackgrass [15]; [26]): 80 | Plant response rating, Blackgrass (blackgrass [15]; [28]): 90 | Wheat plant response rating (wheat [16]; 500 g ai/ha): 90 | Wheat plant response rating (wheat [16]; Test C, 125 g ai/ha): 40 | Plant response rating, Ragweed (ragweed [17]; [26]): 30 | Plant response rating, Galium (galium; [26]): 100 | Plant response rating, Galium (galium; [28]): 100 | Plant response rating, Corn (corn [18]; [26]): 40 | Plant response rating, Corn (corn [18]; [28]): 90 | Plant response rating, Ducksalad (Flood) (ducksalad): 100 | Plant response rating, Pigweed, Palmer (pigweed, palmer [19]; [26]): 40 | Plant response rating, Ryegrass, Italian (ryegrass, Italian [20]; [26]): 80 | Kochia plant response rating (kochia [21]; 500 g ai/ha): 90 | Kochia plant response rating (kochia [21]; Test C, 125 g ai/ha): 60 | Ryegrass, Italian plant response rating (ryegrass, Italian [22]; 500 g ai/ha): 100 | Ryegrass, Italian plant response rating (ryegrass, Italian [22]; Test C, 125 g ai/ha): 90 | Corn plant response rating (corn [23]; 500 g ai/ha): 40 | Corn plant response rating (corn [23]; Test C, 125 g ai/ha): 0
